Test results as given in patent publication US20210070748A1, “INHIBITORS OF BRUTONS TYROSINE KINASE” (Pharmacyclics LLC, priority 2015, published 2021).

Key:
Format in all cases: biochemical
[1] = target: T1, BTK-WT (Homo sapiens, UniProt Q06187); experiment: Btk in vitro inhibitory activity (one of Method A TR-FRET, Method B electrophoretic mobility shift, Method C radiometric filter binding); details: Table 15, C compounds; read-out: IC50 BTK-WT
T1 construct: purified from insect cells as a full-length construct containing an N-terminal 6X-His tag; His6 (N); made in house; host or cells: insect cells (baculovirus Sf21 in Method B)
T1 sequence (Q06187 whole entry): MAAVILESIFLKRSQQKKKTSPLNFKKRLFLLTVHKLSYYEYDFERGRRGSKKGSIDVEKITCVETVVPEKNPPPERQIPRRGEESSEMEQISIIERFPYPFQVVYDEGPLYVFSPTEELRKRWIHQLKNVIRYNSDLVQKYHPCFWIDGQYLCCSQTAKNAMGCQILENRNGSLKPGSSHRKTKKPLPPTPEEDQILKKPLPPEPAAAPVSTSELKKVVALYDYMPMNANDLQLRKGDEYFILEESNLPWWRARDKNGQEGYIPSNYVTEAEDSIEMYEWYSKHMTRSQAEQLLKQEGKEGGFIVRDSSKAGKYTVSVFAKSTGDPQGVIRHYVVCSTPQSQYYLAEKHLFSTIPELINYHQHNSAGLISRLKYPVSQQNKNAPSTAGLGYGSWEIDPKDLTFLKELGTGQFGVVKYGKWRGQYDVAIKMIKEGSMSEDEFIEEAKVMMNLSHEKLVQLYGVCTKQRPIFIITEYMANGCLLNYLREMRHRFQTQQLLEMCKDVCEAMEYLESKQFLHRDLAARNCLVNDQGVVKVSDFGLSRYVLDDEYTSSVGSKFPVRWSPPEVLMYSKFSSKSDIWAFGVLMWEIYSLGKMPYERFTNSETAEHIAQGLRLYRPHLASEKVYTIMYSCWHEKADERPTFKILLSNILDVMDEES

[2] = target: T2, TXK (Homo sapiens, UniProt P42681); experiment: Inhibition of a panel of kinases, in vitro HotSpot kinase assay: TXK; details: Table 15, C compounds; 1 μM ATP
T2 sequence (P42681 1-527): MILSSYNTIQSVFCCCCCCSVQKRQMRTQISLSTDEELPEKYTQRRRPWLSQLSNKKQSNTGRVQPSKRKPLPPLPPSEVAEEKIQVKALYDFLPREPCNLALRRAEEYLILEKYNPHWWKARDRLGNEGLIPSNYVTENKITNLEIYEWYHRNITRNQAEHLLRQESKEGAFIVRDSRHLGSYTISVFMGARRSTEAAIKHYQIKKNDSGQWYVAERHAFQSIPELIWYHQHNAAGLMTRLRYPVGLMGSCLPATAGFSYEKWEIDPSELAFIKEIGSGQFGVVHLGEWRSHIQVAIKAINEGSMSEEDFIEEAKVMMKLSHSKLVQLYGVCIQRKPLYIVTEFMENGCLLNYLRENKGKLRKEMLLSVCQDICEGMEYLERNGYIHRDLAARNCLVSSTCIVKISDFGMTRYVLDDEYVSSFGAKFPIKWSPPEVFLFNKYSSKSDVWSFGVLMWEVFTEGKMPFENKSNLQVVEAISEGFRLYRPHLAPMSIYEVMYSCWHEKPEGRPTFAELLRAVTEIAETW
Procedure: (§1) The degree of inhibition of a panel of kinases is determined using the in vitro HotSpot kinase assay (purified enzymes, ^33P-ATP, an appropriate substrate and 1 μM ATP).

[3] = target: T3, TEC (Homo sapiens, UniProt P42680); experiment: Inhibition of a panel of kinases, in vitro HotSpot kinase assay: TEC; details: Table 15, C compounds; 1 μM ATP
T3 sequence (P42680 1-631): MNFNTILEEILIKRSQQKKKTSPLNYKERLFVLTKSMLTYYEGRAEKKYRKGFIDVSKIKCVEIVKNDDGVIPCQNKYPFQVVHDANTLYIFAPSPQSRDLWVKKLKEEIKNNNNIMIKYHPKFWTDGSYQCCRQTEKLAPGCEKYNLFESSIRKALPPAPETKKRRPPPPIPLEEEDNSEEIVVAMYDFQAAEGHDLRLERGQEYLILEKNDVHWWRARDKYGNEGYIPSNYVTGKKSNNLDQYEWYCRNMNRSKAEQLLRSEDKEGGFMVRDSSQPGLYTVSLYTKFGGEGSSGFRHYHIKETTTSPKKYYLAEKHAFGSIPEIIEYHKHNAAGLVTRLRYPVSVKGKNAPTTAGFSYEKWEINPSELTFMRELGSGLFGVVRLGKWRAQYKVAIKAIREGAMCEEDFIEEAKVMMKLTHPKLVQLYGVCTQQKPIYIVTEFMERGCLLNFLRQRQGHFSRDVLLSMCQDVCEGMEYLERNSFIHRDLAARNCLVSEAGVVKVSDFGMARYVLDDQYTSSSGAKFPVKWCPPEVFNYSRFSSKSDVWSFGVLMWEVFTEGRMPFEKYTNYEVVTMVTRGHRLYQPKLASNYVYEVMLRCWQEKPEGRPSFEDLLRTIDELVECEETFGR
Procedure: as §1

[4] = target: T4, ITK (Homo sapiens, UniProt Q08881); experiment: Inhibition of a panel of kinases, in vitro HotSpot kinase assay: ITK; details: Table 15, C compounds; 1 μM ATP
T4 sequence (Q08881 1-620): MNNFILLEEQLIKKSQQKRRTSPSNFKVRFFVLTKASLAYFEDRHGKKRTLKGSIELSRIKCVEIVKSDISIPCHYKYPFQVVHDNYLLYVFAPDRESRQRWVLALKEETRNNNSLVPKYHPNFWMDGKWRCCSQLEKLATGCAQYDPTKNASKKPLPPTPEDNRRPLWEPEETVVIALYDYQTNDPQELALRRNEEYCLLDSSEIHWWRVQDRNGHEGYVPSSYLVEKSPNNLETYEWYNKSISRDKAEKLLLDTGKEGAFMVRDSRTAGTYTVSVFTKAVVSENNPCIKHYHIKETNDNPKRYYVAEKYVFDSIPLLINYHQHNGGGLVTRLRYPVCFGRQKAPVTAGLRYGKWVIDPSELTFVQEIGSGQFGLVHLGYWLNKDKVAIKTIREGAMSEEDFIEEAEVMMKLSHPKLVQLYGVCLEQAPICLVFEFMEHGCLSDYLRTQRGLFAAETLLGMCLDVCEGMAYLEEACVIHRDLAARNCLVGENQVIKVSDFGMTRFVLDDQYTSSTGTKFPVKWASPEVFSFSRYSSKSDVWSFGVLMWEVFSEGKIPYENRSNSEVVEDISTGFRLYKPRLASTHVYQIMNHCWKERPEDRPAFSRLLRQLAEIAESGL
Procedure: as §1

[5] = target: EGFR (Homo sapiens, UniProt P00533); experiment: Inhibition of a panel of kinases, in vitro HotSpot kinase assay: EGFR; details: Table 15, C compounds; 1 μM ATP
Sequence of EGFR (P00533 25-1210): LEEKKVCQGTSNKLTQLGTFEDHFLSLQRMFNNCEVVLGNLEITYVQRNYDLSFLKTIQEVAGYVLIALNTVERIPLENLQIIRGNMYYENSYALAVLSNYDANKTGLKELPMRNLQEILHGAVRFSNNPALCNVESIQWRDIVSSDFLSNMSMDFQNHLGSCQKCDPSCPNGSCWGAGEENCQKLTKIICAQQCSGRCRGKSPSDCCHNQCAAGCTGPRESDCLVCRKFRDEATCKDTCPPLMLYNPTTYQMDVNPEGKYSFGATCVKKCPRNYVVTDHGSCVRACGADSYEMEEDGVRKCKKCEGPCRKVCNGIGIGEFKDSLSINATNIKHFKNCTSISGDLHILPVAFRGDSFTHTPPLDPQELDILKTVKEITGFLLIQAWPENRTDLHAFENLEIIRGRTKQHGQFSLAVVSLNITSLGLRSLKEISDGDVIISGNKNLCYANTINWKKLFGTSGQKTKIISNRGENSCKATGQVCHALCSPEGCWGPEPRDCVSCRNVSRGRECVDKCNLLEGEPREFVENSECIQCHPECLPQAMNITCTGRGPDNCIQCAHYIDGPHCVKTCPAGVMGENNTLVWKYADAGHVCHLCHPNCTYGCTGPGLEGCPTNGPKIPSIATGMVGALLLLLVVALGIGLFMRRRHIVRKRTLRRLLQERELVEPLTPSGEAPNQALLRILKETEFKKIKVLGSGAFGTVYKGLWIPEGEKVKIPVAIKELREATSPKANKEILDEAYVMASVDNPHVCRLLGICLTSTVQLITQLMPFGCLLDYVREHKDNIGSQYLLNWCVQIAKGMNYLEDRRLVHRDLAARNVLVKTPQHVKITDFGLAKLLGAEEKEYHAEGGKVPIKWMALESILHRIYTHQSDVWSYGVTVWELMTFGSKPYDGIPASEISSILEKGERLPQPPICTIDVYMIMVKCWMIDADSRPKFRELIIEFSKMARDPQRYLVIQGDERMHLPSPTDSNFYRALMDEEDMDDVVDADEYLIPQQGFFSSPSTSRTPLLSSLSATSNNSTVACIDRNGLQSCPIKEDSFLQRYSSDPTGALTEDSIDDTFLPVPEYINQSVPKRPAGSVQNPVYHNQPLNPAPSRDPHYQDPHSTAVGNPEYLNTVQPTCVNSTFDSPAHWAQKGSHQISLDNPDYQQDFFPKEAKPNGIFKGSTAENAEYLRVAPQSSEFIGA
Procedure: as §1

## C=CC(=O)N1CCC[C@@H](Nc2nnc(C(N)=O)c(Nc3ccc(N4CCOCC4=O)cc3)n2)C1 [Example C-76, (R)-3-(1-acryloylpiperidin-3-ylamino)-5-(4-(3-oxomorpholino)phenyl-amino)-1,2,4-triazine-6-carboxamide]
[1]
  IC50: ≤ 10 nM
[2]
  IC50: ≤ 10 nM
[3]
  IC50: ≤ 10 nM
[4]
  IC50: ≤ 10 nM
[5]
  IC50: 10 to 100 nM

## C=CC(=O)N1CCC[C@@H](Nc2nnc(C(N)=O)c(Nc3ccc(-c4nccs4)cc3)n2)C1 [Example C-77, (R)-3-(1-acryloylpiperidin-3-ylamino)-5-(4-(thiazol-2-yl)phenylamino)-1,2,4-triazine-6-carboxamide]
[1]
  IC50: ≤ 10 nM
[2]
  IC50: ≤ 10 nM
[3]
  IC50: ≤ 10 nM
[4]
  IC50: 10 to 100 nM
[5]
  IC50: ≤ 10 nM

## C=CC(=O)N1CCC[C@@H](Nc2nnc(C(N)=O)c(Nc3ccc(-c4nn[nH]n4)cc3)n2)C1 [Example C-78, (R)-5-(4-(2H-tetrazol-5-yl)phenylamino)-3-(1-acryloylpiperidin-3-ylamino)-1,2,4-triazine-6-carboxamide]
[1]
  IC50: ≤ 10 nM
[2]
  IC50: ≤ 10 nM
[3]
  IC50: ≤ 10 nM
[4]
  IC50: 10 to 100 nM
[5]
  IC50: ≤ 10 nM
